The source of these data is patent US20200010482A1, “INHIBITORS OF BETA SECRETASE” (Janssen Pharmaceutica NV, priority 2017, published 2020).

The target of one assay is β-secretase I (BACE1) (Homo sapiens, UniProt P56817). The assay is described as follows: Biochemical assay, automated (CyclOps), BACE1. The settings on record: automated CyclOps bioassay. On the procedure: (§1) Unless otherwise indicated all biochemicals were purchased from Sigma-Aldrich Chemical Company, Poole, Dorset, U.K. and non-aqueous solvents, of analytical or higher grade, were purchased from ThermoFisher Scientific, Loughborough, U.K. MilliQ water (Elix 5 & MilliQ Gradient; Merck Millipore) was used as the base aqueous solvent to make up the biological buffers. Base assay buffer was prepared by adding a 50 mM solution of citric acid (1.00244; Merck Biosciences) to stirring solution of 50 mM trisodium citrate (1.06448; Merck Biosciences) until a final pH of 5.0 was achieved. […] All assays were routinely carried out in 384-well assay plates (Costar 4514; Corning Life Sciences) and incubated at 37±1° C. for 60 min. prior to reading the endpoint fluorescence intensity. The (7-methoxyl coumarin-4-yl)acetic acid based substrate β-secretase substrate VI (M2465; Bachem) was prepared as a 1 mM stock in 100% DMSO (D/4121/PB08; ThermoFisher). Assay buffer was prepared by adding DMSO to base buffer to a final concentration of 1% (vol./vol.). β-secretase I (18.64 μM; “BACE1”) and β-secretase II (4.65 μM; “BACE2”) were obtained from Janssen Pharmaceutica, Beerse, Belgium and were stored as frozen aliquots (˜20 μl) and thawed as required.
(§2) Typically 12.5 μl of assay buffer was dispensed to rows B to P of the assay plate. To row A was added 18.75 μl of test compound diluted appropriately in assay buffer. A 6.25 μl aliquot of sample was transferred from row A to row B and the sample mixed three times by pipette. The process was repeated down the plate and 6.25 μl of solution discarded at row N post-mix. Rows O and P were designated as the positive and negative controls. To row P was added 6.25 μl base buffer. To rows A to O was added 6.25 μl enzyme (freshly prepared 40 nM BACE1 or 40 nM BACE2) diluted in base buffer. To initiate the assay 6.25 μl of freshly prepared 80 μM substrate, made up by diluting the 1 mM in 100% DMSO solution into HPLC grade water (Optima W6-212; ThermoFisher), was added to all the wells. The assay plate was covered and incubated at 37±1° C. for 60 min. The fluorescence intensity of the wells was read at 360/405 nm (excitation/emission) utilising a nine reads per well protocol (50 ms integration; density of 3, 0.25 mm spacing; SpectraMAX Paradigm plate reader; TUNE cartridge; SoftMax Pro v 6.3 software; Molecular Devices UK Ltd., Wokingham, Berkshire, UK) and outputting the median value of the nine reads as a text file. Data analysis was carried out using Prism software v 6.3 (GraphPad Inc., San Diego, Calif., USA) using the non-linear regression analysis models supplied by the vendor. For IC50 determinations the four parameter logistic variable slope model was used to fit the raw fluorescence intensity data with the ‘bottom’ fixed to the negative control.
(§3) The CyclOps bioassay module consisted of a fraction collection station, a reagent station, liquid handling robotics, plate store and an integrated plate reader (SpectraMAX Paradigm, TUNE cartridge, SoftMax Pro v 6.3; Molecular Devices). The fraction collection station composed of a 384 well collection plate (P-384-240SQ-C; Axygen, Union City, Calif., USA) mounted on a H-portal carriage (Festo AG & Co. KG, Esslingen, Germany), a syringe drive and a two-way six port injection valve fitted with a 200 μl loop (VICI AG International, Schenkon Switzerland). The output of the injection valve was addressable to all the positions of a 384 well collection plate. The reagent station consisted of hydraulically cooled (10-12° C.) aluminium segments; each manufactured to house a SBS microtiter plate footprint. Independent addressable reagent stations were housed within these sections. Where required, custom aluminium housings were used to accommodate standard laboratory plastic ware (e.g. Eppendorf tubes, Falcon tubes, etc.). As and when required the reagent reservoirs were covered and the lids contained holes through which the Teflon-coated probe could access solutions. […]

The target of another assay is T1, β-secretase II (BACE2) (Homo sapiens, UniProt Q9Y5Z0).
T1 sequence (Q9Y5Z0 63-518): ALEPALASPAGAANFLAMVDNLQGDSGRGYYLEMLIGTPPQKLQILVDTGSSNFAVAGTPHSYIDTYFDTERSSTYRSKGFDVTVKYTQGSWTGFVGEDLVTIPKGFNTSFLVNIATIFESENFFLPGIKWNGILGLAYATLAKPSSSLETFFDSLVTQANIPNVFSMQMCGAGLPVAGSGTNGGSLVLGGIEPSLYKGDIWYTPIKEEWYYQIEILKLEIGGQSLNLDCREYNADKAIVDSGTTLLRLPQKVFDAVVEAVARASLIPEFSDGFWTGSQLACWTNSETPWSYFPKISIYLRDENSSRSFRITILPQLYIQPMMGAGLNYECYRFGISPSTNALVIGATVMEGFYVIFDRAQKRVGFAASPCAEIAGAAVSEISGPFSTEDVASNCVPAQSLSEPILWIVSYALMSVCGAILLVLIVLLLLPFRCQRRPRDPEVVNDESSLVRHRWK
Briefly: Biochemical assay, automated (CyclOps), BACE2. The following applies: automated CyclOps bioassay. On the procedure: as §1, §2, §3

For assay [1], the system named is Abeta 1-42 produced and secreted by SKNBE2 cells expressing hAPP695. Briefly: Cellular αLisa assay in SKNBE2 cells, Abeta 1-42. The following applies: Homo sapiens, SKNBE2, 18 h, SKNBE2 cells expressing hAPP695, 18 hours incubation; read-out: CELLULAR αLISA ASSAY IN SKNBE2 CELLS ABETA 42 PIC50 (converted). It is filed as cell-based, human. The procedure: In two αLisa assays the levels of Abeta total and Abeta 1-42 produced and secreted into the medium of human neuroblastoma SKNBE2 cells are quantified. The assay is based on the human neuroblastoma SKNBE2 expressing the wild type Amyloid Precursor Protein (hAPP695). The compounds are diluted and added to these cells, incubated for 18 hours and then measurements of Abeta 1-42 and Abeta total are taken. Abeta total and Abeta 1-42 are measured by sandwich αLisa. αLisa is a sandwich assay using biotinylated antibody AbN/25 attached to streptavidin coated beads and antibody Ab4G8 or cAb42/26 conjugated acceptor beads for the detection of Abeta total and Abeta 1-42 respectively. In the presence of Abeta total or Abeta 1-42, the beads come into close proximity. The excitation of the donor beads provokes the release of singlet oxygen molecules that trigger a cascade of energy transfer in the acceptor beads, resulting in light emission. Light emission is measured after 1 hour incubation (excitation at […] and emission at 615 nm).
A best-fit curve is fitted by a minimum sum of squares method to the plot of % Controlmin versus compound concentration. From this an IC50 value (inhibitory concentration causing 50% inhibition of activity) can be obtained. • LC=Median of the low control values=Low control: cells preincubated without compound, without biotinylated Ab in the αLisa • HC=Median of the High control values=High Control: cells preincubated without compound
(§4) % Effect=100−[(sample−LC)/(HC−LC)*100]
(§5) % Control=(sample/HC)*100
(§6) % Controlmin=(sample−LC)/(HC−LC)*100

The target of a further assay is T2, BACE1 (Homo sapiens, UniProt P56817).
T2 construct: recombinant BACE1 protein in a final concentration of 0.04 μg/ml
Briefly: BACE1 biochemical FRET based assay. The following applies: recombinant BACE1 0.04 μg/ml, 20 μM substrate, 450 min, pH 5.0; read-out: BIOCHEMICAL FRET BASED ASSAY pIC50 (converted).
Description: (§7) This assay is a Fluorescence Resonance Energy Transfer Assay (FRET) based assay. The substrate for this assay is an APP derived 13 amino acids peptide that contains the ‘Swedish’ Lys-Met/Asn-Leu mutation of the amyloid precursor protein (APP) beta-secretase cleavage site. This substrate also contains two fluorophores: (7-methoxycoumarin-4-yl) acetic acid (Mca) is a fluorescent donor with excitation wavelength at 320 nm and emission at 405 nm and 2,4-Dinitrophenyl (Dnp) is a proprietary quencher acceptor. […] Upon cleavage by BACE1, the fluorophore Mca is separated from the quenching group Dnp, restoring the full fluorescence yield of the donor. The increase in fluorescence is linearly related to the rate of proteolysis.
Briefly in a 384-well format recombinant BACE1 protein in a final concentration of 0.04 μg/ml is incubated for 450 minutes at room temperature with 20 μM substrate in incubation buffer (50 mM Citrate buffer pH 5.0, 0.05% PEG) in the presence of compound or DMSO. Next the amount of proteolysis is directly measured by fluorescence measurement (excitation at 320 nm and emission at 405 nm) at different incubation times (0, 30, 60, 90, 120 and 450 min). For every experiment a time curve (every 30 min between 0 min and 120 min) is used to determine the time where we find the lowest basal signal of the high control. The signal at this time (Tx) is used to subtract from the signal at 450 min. Results are expressed in RFU, as difference between T450 and Tx.
(§8) A best-fit curve is fitted by a minimum sum of squares method to the plot of % Controlmin versus compound concentration. From this an IC50 value (inhibitory concentration causing 50% inhibition of activity) can be obtained. • LC=Median of the low control values=Low control: Reaction without enzyme • HC=Median of the High control values=High Control: Reaction with enzyme
as §4, §5, §6

In the next assay the target is T3, BACE2 (Homo sapiens, UniProt Q9Y5Z0).
T3 construct: recombinant BACE2 protein in a final concentration of 0.4 μg/ml
T3 sequence (Q9Y5Z0 63-518): T1 sequence (Q9Y5Z0 63-518)
Briefly: BACE2 biochemical FRET based assay. The settings on record: recombinant BACE2 0.4 μg/ml, 10 μM substrate, 450 min, pH 5.0; read-out: BIOCHEMICAL FRET BASED ASSAY pIC50 (converted).
Description: as §7, with “assay” for “assay is an APP derived 13 amino acids peptide that”, “the beta-secretase,” for “BACE1,”
Briefly in a 384-well format recombinant BACE2 protein in a final concentration of 0.4 μg/ml is incubated for 450 minutes at room temperature with 10 μM substrate in incubation buffer (50 mM Citrate buffer pH 5.0, 0.05% PEG, no DMSO) in the absence or presence of compound. Next the amount of proteolysis is directly measured by fluorescence measurement at T=0 and T=450 (excitation at 320 nm and emission at 405 nm). Results are expressed in RFU (Relative Fluorescence Units), as difference between T450 and TO.
as §8, §4, §5, §6

β-secretase I (BACE1), sequence (P56817 46-501): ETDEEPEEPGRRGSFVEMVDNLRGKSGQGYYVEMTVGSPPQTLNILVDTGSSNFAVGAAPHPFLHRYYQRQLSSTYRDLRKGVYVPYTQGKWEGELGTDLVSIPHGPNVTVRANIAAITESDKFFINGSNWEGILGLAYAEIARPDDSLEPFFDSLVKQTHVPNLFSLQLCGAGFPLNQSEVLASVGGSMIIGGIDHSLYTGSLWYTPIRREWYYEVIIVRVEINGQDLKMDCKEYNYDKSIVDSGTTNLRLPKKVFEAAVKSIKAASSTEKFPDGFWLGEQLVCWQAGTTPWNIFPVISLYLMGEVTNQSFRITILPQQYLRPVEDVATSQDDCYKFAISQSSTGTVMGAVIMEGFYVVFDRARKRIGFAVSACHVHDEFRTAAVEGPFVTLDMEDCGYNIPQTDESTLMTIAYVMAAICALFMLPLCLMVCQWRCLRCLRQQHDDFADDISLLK
T2 sequence (P56817 46-501): as above

As to `COc1ncc(/C=C/c2ccc(F)cc2)c2c1C[C@]1(c3ccc(F)cc3F)N=C(N)SC[C@@H]1C2` [Compound 48], the “AUTOMATED ASSAY BACE1 pIC50” value at β-secretase I (BACE1) was 7.76. In addition, the “AUTOMATED ASSAY BACE2 pIC50” value on β-secretase II (BACE2) was found to be 7.63.
For the molecule `COc1ncc(-c2ccccc2F)c2c1C[C@]1(c3ccc(F)cc3F)N=C(N)SC[C@@H]1C2` [Compound 50], the “AUTOMATED ASSAY BACE1 pIC50” value on β-secretase I (BACE1) is on record as 8.28. In addition, on β-secretase II (BACE2), the “AUTOMATED ASSAY BACE2 pIC50” value stood at 7.96.
For `COc1ncc(-c2cc(C(F)(F)F)ccc2F)c2c1C[C@]1(c3ccc(F)cc3F)N=C(N)SC[C@@H]1C2` [Compound 51], at β-secretase I (BACE1), the “AUTOMATED ASSAY BACE1 pIC50” value is recorded as 7.34. Moreover, the “AUTOMATED ASSAY BACE2 pIC50” value on β-secretase II (BACE2) was 6.83.
As to `COc1ncc(-c2cc(F)cc(F)c2)c2c1C[C@]1(c3ccc(F)cc3F)N=C(N)SC[C@@H]1C2` [Compound 54], on β-secretase I (BACE1), the “AUTOMATED ASSAY BACE1 pIC50” value was 8.54. In addition, at β-secretase II (BACE2), the “AUTOMATED ASSAY BACE2 pIC50” value stood at 8.42.
On the same counts, the results for `COc1ncc(-c2cccc(C)c2C)c2c1C[C@]1(c3ccc(F)cc3F)N=C(N)SC[C@@H]1C2` [Compound 56] are 8.11 and 7.63.
`COc1ncc(-c2ccc(F)cc2C)c2c1C[C@]1(c3ccc(F)cc3F)N=C(N)SC[C@@H]1C2` [Compound 58]: the “AUTOMATED ASSAY BACE1 pIC50” value at β-secretase I (BACE1) amounted to 7.77. For the same molecule, the “AUTOMATED ASSAY BACE2 pIC50” value at β-secretase II (BACE2) was 6.99.
With `COc1ncc(-c2ccc(Cl)c(C)c2)c2c1C[C@]1(c3ccc(F)cc3F)N=C(N)SC[C@@H]1C2` [Compound 59], on β-secretase I (BACE1), the “AUTOMATED ASSAY BACE1 pIC50” value came out at 7.68. Also, the “AUTOMATED ASSAY BACE2 pIC50” value at β-secretase II (BACE2) came to 7.15.
As to `COc1ncc(-c2cccc3cnn(C)c23)c2c1C[C@]1(c3ccc(F)cc3F)N=C(N)SC[C@@H]1C2` [Compound 127], the “AUTOMATED ASSAY BACE1 pIC50” value on β-secretase I (BACE1) is 6.77. Also, the “AUTOMATED ASSAY BACE2 pIC50” value at β-secretase II (BACE2) was 5.6.
For `COc1nccc2c1C[C@]1(c3cc(OCC4CC4)ccc3F)N=C(N)SC[C@@H]1C2` [Compound 136], the IC50 in assay [1] was 0.0186 µM; at BACE1, 0.0148 µM; at BACE2, 0.0148 µM.
Consider `COc1nccc2c1C[C@@]1(c3cc(OCC4CC4)ccc3F)N=C(N)SC[C@H]1C2` [Compound 184], for which the IC50 is 5.37 µM in assay [1], over 10 µM at BACE1 and over 10 µM at BACE2.
On to `COc1nccc2c1C[C@@]1(c3cc(-c4cncnc4)ccc3F)N=C(N)SC[C@H]1C2` [Compound 185], for which the IC50 is over 8.91 µM in assay [1], over 10 µM at BACE1 and over 10 µM on BACE2.
As for `COc1nccc2c1C[C@@]1(c3cc(-c4cncc(C#N)c4)ccc3F)N=C(N)SC[C@H]1C2` [Compound 186], the IC50 in assay [1] is over 8.91 µM; at BACE1, over 10 µM; at BACE2, over 10 µM.
For `COc1ncc(Br)c2c1C[C@@]1(c3cc(O)ccc3F)N=C(N)SC[C@H]1C2` [Compound 189], the IC50 in assay [1] was 6.92 µM; at BACE1, over 10 µM; on BACE2, over 10 µM.
